Results on four molecules are retold here after patent publication US20250116657A1, “HIGH-THROUGHPUT ASSAY FOR CELL MIGRATION, CHEMOTAXIS, AND FUNCTION” (GlaxoSmithKline Intellectual Property Development Limited, priority 2022, published 2025).

What all share (assay type): cell-based
For test [1], the system named is HT29-GFP colorectal cancer cells. Briefly: HT29-GFP colorectal cancer cell killing within ECM-filled 2-lane Mimetas ORGANOPLATE (GFP cell debris image analysis). Conditions: 10 μM, 5 days, 7-day old single cell colonies, 750 cells. How it is done: Single cells were seen to be uniformly dispensed across the microfluidic lanes and grew into single cell colonies over time.
2-lane Mimetas ORGANOPLATE® wells harboring 7-day old single cell colonies with either 500 cells or 750 cells were treated with 0 or 10 μM Bortezomib (sold under the brand name Velcade in the United States; CAS 179324-69-7) to observe cell killing within the channel over 5 days.

Test [2] has as its system activated CD3+ T-cells. Put plainly: Activated CD3+ T-cell chemotaxis through end-to-end collagen-matrigel ECM plug in 2-lane Mimetas ORGANOPLATE
Particulars: for lowest concentration with robust chemotaxis response (migration length) compared to blank media control / lowest concentration with significantly higher total number of responding activated T-cells over blank media controls: 10,000 cells, 96 hours; for lowest concentration with robust chemotaxis response (migration length) compared to blank media control: chemokine refreshed at 48 hours; for lowest concentration with significantly higher total number of responding activated T-cells over blank media controls: one-way ANOVA. Here is the method:
50 μl of 37° C. warmed 1×PBS were added to wells in columns 3, 7, 11, 15, 19 and 23 observation windows of Mimetas 2-lane ORGANOPLATE® and stored at 4° C. 5 μl of ice-cold 2 mg/ml collagen mixed with 10% (v/v) of low endotoxin matrigel GFR were added to wells in columns 4, 8, 12, 16, 20 and 24 of chilled Mimetas 2-lane ORGANOPLATE® to potentially create aligned collagen fibers within the microfluidic channels. After the ECM filled all the microfluidic channels, 1 μl of ice-cold ECM was quickly added to wells in columns 1, 2, 5, 6, 9, 10, 13, 14, 17, 18, 21, and 22 to allow for contact to be established between the ECM footprints. 4.5 ml of 37° C. warmed ultrapure water was added to both the ends of sterile MicroClime Environmental Lid and placed atop the Mimetas ORGANOPLATE®. The assembly was placed in a humidified 37° C. cell culture incubator for 45 minutes to ensure complete gelation of all the wells throughout the plate and used for the experiment.
After the gelation, 50 μl of blank media was added to the wells of columns 1, 5, 9, 13, 17 and 21 followed by 50 μl of the desired chemokine at different concentrations in wells of columns 4, 8, 12, 16, 20 and 24. 1:1000 (v/v) NUCLIGHT® Rapid Red dye stained and washed activated CD3+ T-cells were quickly added towards the mouth of the channel allowing increased deposition of cells closer to the mouth of the channel in the wells of column 2, 6, 10, 14, 18 and 22 in RPMI media with 0.5% FBS. CD3+ T-cells were activated for 48 hours prior the experiment with 1:500 (v/v) TRANSACT® beads with 20 IU/mL IL2 in RPMI media with 10% FBS. The ORGANOPLATE® was left undisturbed for 3-5 minutes to allow T-cell settling followed by placing them in humidified 37° C. incubator for the duration of the experiment. Chemokines were replaced as needed after 48 and 96 hours along with the 37° C. warmed ultrapure water within the sterile MicroClime Environmental Lid.
Wells from columns 2, 3, 4, 6, 7, 8, 10, 11, 12, 14, 15, 16, 18, 19, 20, 22, 23 and 24 were imaged in the far red and bright field channels at 4× magnification on days 0, 1, 2, 3, 4, 5 and 6 using an INCELL™ 6500 confocal microscope to identify the cells within the migrating channel. Z-stack of six images at different focal planes 50 μm apart spanning the thickness of the microfluidic channel were captured followed by maximum projection to create a singular image of the migratory channel. Images were then transferred to COLUMBUS™ image segmentation software to extract the X-Y location of the migratory CD3+ T-cells within the microfluidic channel. Area cut-offs and positive signal over background were used to accurately identify the fluorescent T-cells over the background.
The X-Y data of the CD3+ T-cells was transferred to SPOTFIRE™ analytics platform for image representation. The X axis location of the migratory T-cells across 4 different replicate wells were pooled and represented as a horizontal violin plot using the GRAPHPAD™ prism. Kruskal-Wallis test for statistical significance was used to understand the significance of a chemokine concentration in driving increased migration distance into the end-to-end solid ECM channel over blank media controls. Replicates were individually compared amongst each other to ensure significance between the sample and replicate and the lowest significance difference was represented in the graph. […]

The subject of test [3] is naive CD3+ T-cells. Briefly: Naive CD3+ T-cell chemotaxis through ECM plug in 2-lane Mimetas ORGANOPLATE
Conditions: 2.5 μM CXCR3 agonist. How it is done: Nuclight rapid red dye stained naive CD3+ T-cells were added closer to the mouth of the channel at the one end (well/frame 2 (102) of extracellular matrix (2 mg/mL collagen+10% (v/v) Matrigel GFR) filled within 2-lane Mimetas ORGANOPLATE®) to evaluate chemotaxis in response to the small molecule agonist applied to other end of the extracellular matrix plug (well/frame 4 (104)). Well/frame 1 (101) was filled with blank media. […] In order to enhance the adhesion of naïve T-cells to the extracellular matrix, 1 μg/mL of ICAM1 (Intercellular Adhesion Molecule 1, also known as Cluster of Differentiation 54 (CD54)) was also spiked into well/frame 2 of the assay system along with the T-cells. Chemotaxis potential was measured via confocal microscopy, identifying the number of naïve T-cells under migration in response to the chemokine gradient generated within the extracellular matrix.

Take `CC(C)C[C@H](NC(=O)[C@H](Cc1ccccc1)NC(=O)c1cnccn1)B(O)O` [Bortezomib]: the “number of GFP cell debris aggregates (cell killing) versus 0 μM” value in test [1] is “statistically significant increase”.
For the molecule “CXCL10: recombinant chemokine, R&D Systems catalog 266-IP”, in test [2], the “lowest concentration with robust chemotaxis response (migration length) compared to blank media control” value turned out to be 37.5 nM and the “lowest concentration with significantly higher total number of responding activated T-cells over blank media controls” value is given as 150 nM.
For “CXCL12: recombinant chemokine, R&D Systems catalog 350-NS”, the “chemotaxis of activated CD3+ T-cells compared to 0 nM” value in test [2] (300 nM, 120 hours, cells in well 2, media in well 1, chemokine in well 4, refreshed after 48 hours) is reported as “significantly higher chemotaxis”. In addition, in test [2], the “lowest concentration with robust chemotaxis response (migration length) compared to blank media control” value is on record as 37.5 nM and the “lowest concentration with significantly higher total number of responding activated T-cells over blank media controls” value was 18.75 nM.

B1: ICAM1: Intercellular Adhesion Molecule 1, also known as Cluster of Differentiation 54 (CD54) (protein, UniProt P05362 28-532, looked up)
Intercellular adhesion …: QTSVSPSKVILPRGGSVLVTCSTSCDQPKLLGIETPLPKKELLLPGNNRKVYELSNVQEDSQPMCYSNCPDGQSTAKTFLTVYWTPERVELAPLPSWQPVGKNLTLRCQVEGGAPRANLTVVLLRGEKELKREPAVGEPAEVTTTVLVRRDHHGANFSCRTELDLRPQGLELFENTSAPYQLQTFVLPATPPQLVSPRVLEVDTQGTVVCSLDGLFPVSEAQVHLALGDQRLNPTVTYGNDSFSAKASVSVTAEDEGTQRLTCAVILGNQSQETLQTVTIYSFPAPNVILTKPEVSEGTEVTVKCEAHPRAKVTLNGVPAQPLGPRAQLLLKATPEDNGRSFSCSATLEVAGQLIHKNQTRELRVLYGPRLDERDCPGNWTWPENSQQTPMCQAWGNPLPELKCLKDGTFPLPIGESVTVTRDLEGTYLCRARSTQGEVTRKVTVNVLSPRYEIVIITVVAAAVIMGTAGLSTYLYNRQRKIKKYRLQQAQKGTPMKPNTQATPP
On to B1, for which the “effect of addition on number of naive T-cells responding to the chemokine gradient” value in test [3] (1 μg/mL in well 2, 35000 cells) is “did not influence”. The “impact of inclusion on chemotaxis outcome” value in test [3] (1 μg/mL in well 2, higher naive T-cell numbers (100,000-150,000)) is listed as “non-significant impact”.
